{
  "source": "PubChem BioAssay AID2060903",
  "about": "(Molecular Pharmacology Branch, DTP, NCI, 2025);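 also: spheroids exposed to compounds for seven days before readout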",
  "system": "377384-186-R-J1-PDC complex spheroid viability",
  "assay": "Anticancer human tumor 377384-186-R-J1-PDC patient-derived pancreatic carcinoma cell line growth inhibition [RAS]",
  "conditions": "for IC50: curve of first compound; for viability, T/C: stronger effect = lower value",
  "method_in_brief": "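Tumour cells grown as complex spheroids with HUVEC endothelial cells and mesenchymal stem cells, treated with RAS pathway inhibitor combinations. Each agent spans half-log steps from near clinical Cmax, or 10 microM where Cmax is unknown.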",
  "key": {"[1]": {"conditions": "second compound 0.0316 µM, first compound 0.0316 µM"}, "[2]": {"conditions": "second compound 0.0316 µM, first compound 0.1 µM"}, "[3]": {"conditions": "second compound 0.0316 µM, first compound 0.316 µM"}, "[4]": {"conditions": "second compound 0.0316 µM, first compound 1 µM"}, "[5]": {"conditions": "second compound 0.1 µM, first compound 0.0316 µM"}, "[6]": {"conditions": "second compound 0.1 µM, first compound 0.1 µM"}, "[7]": {"conditions": "second compound 0.1 µM, first compound 0.316 µM"}, "[8]": {"conditions": "second compound 0.1 µM, first compound 1 µM"}, "[9]": {"conditions": "second compound 0.316 µM, first compound 0.0316 µM"}, "[10]": {"conditions": "second compound 0.316 µM, first compound 0.1 µM"}, "[11]": {"conditions": "second compound 0.316 µM, first compound 0.316 µM"}, "[12]": {"conditions": "second compound 0.316 µM, first compound 1 µM"}, "[13]": {"conditions": "second compound 1 µM, first compound 0.0316 µM"}, "[14]": {"conditions": "second compound 1 µM, first compound 0.1 µM"}, "[15]": {"conditions": "second compound 1 µM, first compound 0.316 µM"}, "[16]": {"conditions": "second compound 1 µM, first compound 1 µM"}, "[17]": {"conditions": "second compound 3.16 µM, first compound 0.0316 µM"}, "[18]": {"conditions": "second compound 3.16 µM, first compound 0.1 µM"}, "[19]": {"conditions": "second compound 3.16 µM, first compound 0.316 µM"}, "[20]": {"conditions": "second compound 3.16 µM, first compound 1 µM"}, "[21]": {"conditions": "second compound 10 µM, first compound 0.0316 µM"}, "[22]": {"conditions": "second compound 10 µM, first compound 0.1 µM"}, "[23]": {"conditions": "second compound 10 µM, first compound 0.316 µM"}, "[24]": {"conditions": "second compound 10 µM, first compound 1 µM"}},
  "data": [
    {"smiles": "C=CC(=O)N1CCN(c2nc(OCC3CCCN3C)nc3c(F)c(-c4nc(N)cc(C)c4C(F)(F)F)c(Cl)cc23)C(C)C1", "note": "(centres undefined) + C#Cc1c(F)ccc2cc(O)cc(-c3ncc4c(N5CC6CCC(C5)N6)nc(OCC56CCCN5CC(F)C6)nc4c3F)c12", "values": [
      {"measurement": "IC50", "setting": "second compound 0.0316 µM", "value": "< 3.16", "unit": "nM"},
      {"measurement": "IC50", "setting": "second compound 0.1 µM", "value": "< 3.16", "unit": "nM"},
      {"measurement": "IC50", "setting": "second compound 0.316 µM", "value": "< 3.16", "unit": "nM"},
      {"measurement": "IC50", "setting": "second compound 1 µM", "value": "< 3.16", "unit": "nM"},
      {"measurement": "IC50", "setting": "second compound 3.16 µM", "value": "< 3.16", "unit": "nM"},
      {"measurement": "IC50", "setting": "second compound 10 µM", "value": "< 3.16", "unit": "nM"},
      {"measurement": "viability, T/C", "setting": "second compound 0.0316 µM, first compound 0.00316 µM", "value": 24.6, "unit": "%"},
      {"measurement": "viability, T/C", "setting": "second compound 0.0316 µM, first compound 0.01 µM", "value": 16.6, "unit": "%"},
      {"measurement": "viability, T/C", "setting": "[1]", "value": 20.2, "unit": "%"},
      {"measurement": "viability, T/C", "setting": "[2]", "value": 20.3, "unit": "%"},
      {"measurement": "viability, T/C", "setting": "[3]", "value": 10.2, "unit": "%"},
      {"measurement": "viability, T/C", "setting": "[4]", "value": 9.03, "unit": "%"},
      {"measurement": "viability, T/C", "setting": "second compound 0.1 µM, first compound 0.00316 µM", "value": 14.6, "unit": "%"},
      {"measurement": "viability, T/C", "setting": "second compound 0.1 µM, first compound 0.01 µM", "value": 9.29, "unit": "%"},
      {"measurement": "viability, T/C", "setting": "[5]", "value": 10.7, "unit": "%"},
      {"measurement": "viability, T/C", "setting": "[6]", "value": 9.27, "unit": "%"},
      {"measurement": "viability, T/C", "setting": "[7]", "value": 5.71, "unit": "%"},
      {"measurement": "viability, T/C", "setting": "[8]", "value": 5.75, "unit": "%"},
      {"measurement": "viability, T/C", "setting": "second compound 0.316 µM, first compound 0.00316 µM", "value": 5.54, "unit": "%"},
      {"measurement": "viability, T/C", "setting": "second compound 0.316 µM, first compound 0.01 µM", "value": 5.26, "unit": "%"},
      {"measurement": "viability, T/C", "setting": "[9]", "value": 4.78, "unit": "%"},
      {"measurement": "viability, T/C", "setting": "[10]", "value": 5.36, "unit": "%"},
      {"measurement": "viability, T/C", "setting": "[11]", "value": 4.48, "unit": "%"},
      {"measurement": "viability, T/C", "setting": "[12]", "value": 2.79, "unit": "%"},
      {"measurement": "viability, T/C", "setting": "second compound 1 µM, first compound 0.00316 µM", "value": 3.22, "unit": "%"},
      {"measurement": "viability, T/C", "setting": "second compound 1 µM, first compound 0.01 µM", "value": 2.82, "unit": "%"},
      {"measurement": "viability, T/C", "setting": "[13]", "value": 3.82, "unit": "%"},
      {"measurement": "viability, T/C", "setting": "[14]", "value": 3.54, "unit": "%"},
      {"measurement": "viability, T/C", "setting": "[15]", "value": 3.08, "unit": "%"},
      {"measurement": "viability, T/C", "setting": "[16]", "value": 3.36, "unit": "%"},
      {"measurement": "viability, T/C", "setting": "second compound 3.16 µM, first compound 0.00316 µM", "value": 1.84, "unit": "%"},
      {"measurement": "viability, T/C", "setting": "second compound 3.16 µM, first compound 0.01 µM", "value": 2.35, "unit": "%"},
      {"measurement": "viability, T/C", "setting": "[17]", "value": 2.16, "unit": "%"},
      {"measurement": "viability, T/C", "setting": "[18]", "value": 1.87, "unit": "%"},
      {"measurement": "viability, T/C", "setting": "[19]", "value": 2.05, "unit": "%"},
      {"measurement": "viability, T/C", "setting": "[20]", "value": 2.48, "unit": "%"},
      {"measurement": "viability, T/C", "setting": "second compound 10 µM, first compound 0.00316 µM", "value": 1.31, "unit": "%"},
      {"measurement": "viability, T/C", "setting": "second compound 10 µM, first compound 0.01 µM", "value": 1.46, "unit": "%"},
      {"measurement": "viability, T/C", "setting": "[21]", "value": 0.83, "unit": "%"},
      {"measurement": "viability, T/C", "setting": "[22]", "value": 1.21, "unit": "%"},
      {"measurement": "viability, T/C", "setting": "[23]", "value": 1.13, "unit": "%"},
      {"measurement": "viability, T/C", "setting": "[24]", "value": 0.62, "unit": "%"}
    ]},
    {"smiles": "CC(=O)OC12COC1CC(O)C1(C)C(=O)C(O)C3=C(C)C(OC(=O)C(O)C(NC(=O)OC(C)(C)C)c4ccccc4)CC(O)(C(OC(=O)c4ccccc4)C21)C3(C)C", "note": "(centres undefined) + C#Cc1c(F)ccc2cc(O)cc(-c3ncc4c(N5CC6CCC(C5)N6)nc(OCC56CCCN5CC(F)C6)nc4c3F)c12", "values": [
      {"measurement": "IC50", "setting": "second compound 0.0316 µM", "value": "< 31.6", "unit": "nM"},
      {"measurement": "IC50", "setting": "second compound 0.1 µM", "value": "< 31.6", "unit": "nM"},
      {"measurement": "IC50", "setting": "second compound 0.316 µM", "value": "< 31.6", "unit": "nM"},
      {"measurement": "IC50", "setting": "second compound 1 µM", "value": "< 31.6", "unit": "nM"},
      {"measurement": "IC50", "setting": "second compound 3.16 µM", "value": "< 31.6", "unit": "nM"},
      {"measurement": "IC50", "setting": "second compound 10 µM", "value": "< 31.6", "unit": "nM"},
      {"measurement": "viability, T/C", "setting": "[1]", "value": 2.38, "unit": "%"},
      {"measurement": "viability, T/C", "setting": "[2]", "value": 3.09, "unit": "%"},
      {"measurement": "viability, T/C", "setting": "[3]", "value": 3.14, "unit": "%"},
      {"measurement": "viability, T/C", "setting": "[4]", "value": 3.55, "unit": "%"},
      {"measurement": "viability, T/C", "setting": "second compound 0.0316 µM, first compound 3.16 µM", "value": 3.94, "unit": "%"},
      {"measurement": "viability, T/C", "setting": "second compound 0.0316 µM, first compound 10 µM", "value": 3.06, "unit": "%"},
      {"measurement": "viability, T/C", "setting": "[5]", "value": 2.23, "unit": "%"},
      {"measurement": "viability, T/C", "setting": "[6]", "value": 2.57, "unit": "%"},
      {"measurement": "viability, T/C", "setting": "[7]", "value": 2.12, "unit": "%"},
      {"measurement": "viability, T/C", "setting": "[8]", "value": 1.89, "unit": "%"},
      {"measurement": "viability, T/C", "setting": "second compound 0.1 µM, first compound 3.16 µM", "value": 1.87, "unit": "%"},
      {"measurement": "viability, T/C", "setting": "second compound 0.1 µM, first compound 10 µM", "value": 3.18, "unit": "%"},
      {"measurement": "viability, T/C", "setting": "[9]", "value": 2.05, "unit": "%"},
      {"measurement": "viability, T/C", "setting": "[10]", "value": 2.18, "unit": "%"},
      {"measurement": "viability, T/C", "setting": "[11]", "value": 2, "unit": "%"},
      {"measurement": "viability, T/C", "setting": "[12]", "value": 2.01, "unit": "%"},
      {"measurement": "viability, T/C", "setting": "second compound 0.316 µM, first compound 3.16 µM", "value": 2.08, "unit": "%"},
      {"measurement": "viability, T/C", "setting": "second compound 0.316 µM, first compound 10 µM", "value": 1.78, "unit": "%"},
      {"measurement": "viability, T/C", "setting": "[13]", "value": 1.73, "unit": "%"},
      {"measurement": "viability, T/C", "setting": "[14]", "value": 1.59, "unit": "%"},
      {"measurement": "viability, T/C", "setting": "[15]", "value": 1.53, "unit": "%"},
      {"measurement": "viability, T/C", "setting": "[16]", "value": 1.76, "unit": "%"},
      {"measurement": "viability, T/C", "setting": "second compound 1 µM, first compound 3.16 µM", "value": 1.09, "unit": "%"},
      {"measurement": "viability, T/C", "setting": "second compound 1 µM, first compound 10 µM", "value": 1.72, "unit": "%"},
      {"measurement": "viability, T/C", "setting": "[17]", "value": 1.58, "unit": "%"},
      {"measurement": "viability, T/C", "setting": "[18]", "value": 1.73, "unit": "%"},
      {"measurement": "viability, T/C", "setting": "[19]", "value": 1.51, "unit": "%"},
      {"measurement": "viability, T/C", "setting": "[20]", "value": 1.74, "unit": "%"},
      {"measurement": "viability, T/C", "setting": "second compound 3.16 µM, first compound 3.16 µM", "value": 1.58, "unit": "%"},
      {"measurement": "viability, T/C", "setting": "second compound 3.16 µM, first compound 10 µM", "value": 1.95, "unit": "%"},
      {"measurement": "viability, T/C", "setting": "[21]", "value": 0.77, "unit": "%"},
      {"measurement": "viability, T/C", "setting": "[22]", "value": 0.5, "unit": "%"},
      {"measurement": "viability, T/C", "setting": "[23]", "value": 0.68, "unit": "%"},
      {"measurement": "viability, T/C", "setting": "[24]", "value": 0.75, "unit": "%"},
      {"measurement": "viability, T/C", "setting": "second compound 10 µM, first compound 3.16 µM", "value": 0.42, "unit": "%"},
      {"measurement": "viability, T/C", "setting": "second compound 10 µM, first compound 10 µM", "value": 0.94, "unit": "%"}
    ]}
  ]
}
